Measured values: PubChem BioAssay (NCI)
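Method: 48-hour compound exposure of cells in 96-well plates, five concentrations, linear interpolation of endpoints. Definition used: TGI = concentration required for complete inhibition of growth.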

Key:
Test in all cases: NCI-60 cell line screen, 48 h
TK-10 renal = tested on: TK-10 renal
HL-60(TB) leukemia = tested on: HL-60(TB) leukemia
PC-3 prostate = tested on: PC-3 prostate
COLO 205 colon = tested on: COLO 205 colon
SK-MEL-28 melanoma = tested on: SK-MEL-28 melanoma
786-0 renal = tested on: 786-0 renal
HCT-15 colon = tested on: HCT-15 colon
SW-620 colon = tested on: SW-620 colon
HT29 colon = tested on: HT29 colon
KM12 colon = tested on: KM12 colon
IGROV1 ovarian = tested on: IGROV1 ovarian
UACC-62 melanoma = tested on: UACC-62 melanoma
SF-295 CNS = tested on: SF-295 CNS
RPMI-8226 leukemia = tested on: RPMI-8226 leukemia
MOLT-4 leukemia = tested on: MOLT-4 leukemia
NCI-H226 lung = tested on: NCI-H226 lung
SK-OV-3 ovarian = tested on: SK-OV-3 ovarian
OVCAR-4 ovarian = tested on: OVCAR-4 ovarian
SNB-75 CNS = tested on: SNB-75 CNS

| Structure (SMILES) | TGI (TK-10 renal) [µM] | TGI (HL-60(TB) leukemia) [µM] | TGI (PC-3 prostate) [µM] | TGI (COLO 205 colon) [µM] | TGI (SK-MEL-28 melanoma) [µM] | TGI (786-0 renal) [µM] | TGI (HCT-15 colon) [µM] | TGI (SW-620 colon) [µM] | TGI (HT29 colon) [µM] | TGI (KM12 colon) [µM] | TGI (IGROV1 ovarian) [µM] | TGI (UACC-62 melanoma) [µM] | TGI (SF-295 CNS) [µM] | TGI (RPMI-8226 leukemia) [µM] | TGI (MOLT-4 leukemia) [µM] | TGI (NCI-H226 lung) [µM] | TGI (SK-OV-3 ovarian) [µM] | TGI (OVCAR-4 ovarian) [µM] | TGI (SNB-75 CNS) [µM] |
| --- | --- | --- | --- | --- | --- | --- | --- | --- | --- | --- | --- | --- | --- | --- | --- | --- | --- | --- | --- |
| N#Cc1ccc(-c2nc3c(N)ncnc3o2)cc1 | > 100 | > 100 | > 100 | > 100 | > 100 | > 100 | > 100 | > 100 | > 100 | > 100 | > 100 | > 100 | > 100 | > 100 | > 100 | > 100 |  |  |  |
| C=CC[C@]1(/C=N/O)CN(S(=O)(=O)CC[Si](C)(C)C)C[C@H]2CC=CC[C@H]21 | 36.8 |  | 51.7 | 32.6 | 54.7 | 32.5 | > 100 | 34.7 | 30.8 | 51.5 | 34.8 | 64.9 | 31 | 31.8 | 52.2 | 34.4 | 64.5 | 34.1 | 54.2 |
| N[C@@H]1CCN(c2c(F)cc3c(=O)c(C(=O)O)cn4c3c2Oc2c-4ccc3c2ccc2ccccc23)C1 | 40 | > 100 | > 100 | > 100 | > 100 | 39.6 | > 100 | > 100 | > 100 | > 100 | 36.3 | > 100 | > 100 | 36.3 | > 100 | > 100 | > 100 |  |  |
| Nc1ccccc1CCN1CCN(CCCc2ccccc2)CC1 | > 100 | > 100 | > 100 | 55 | > 100 | > 100 | > 100 | > 100 | > 100 | > 100 | > 100 | > 100 | > 100 | 75.5 | > 100 | > 100 | > 100 | > 100 |  |
| CC12C=CC(C)(C3C(=O)C4C(C(=O)C31)C1(C)C=CC4(C)S1=O)S2=O (stereo not given) | > 100 |  | > 100 | > 100 |  | > 100 | > 100 |  | > 100 | > 100 | > 100 | > 100 | > 100 |  |  | > 100 | > 100 |  | > 100 |
| Cc1cc(C)c2c(=O)cc(-c3cccc4ccccc34)[nH]c2n1 | > 87.1 | 0.734 | > 100 | 2.03 | > 100 | > 100 | 14.3 | > 88.8 | 2.31 | 15.4 | > 84.5 | > 61.6 | > 100 | 29 | 42.7 | 79.1 | > 42 | > 100 |  |
| C[C@@H](C(=O)O)N1C(c2ccco2)=C(/C(C=O)=C\c2ccco2)C(=O)/C1=C\c1ccco1 | > 100 | > 100 | > 100 | > 100 | > 100 | > 100 | > 100 | > 100 | > 100 | > 100 | > 100 | > 100 | > 100 | > 100 | > 100 |  |  | > 100 |  |
| COc1ccc(Cn2c3c(cc(OC(C)=O)c2=O)Cc2ccccc2-3)cc1 | 34 | 20.6 | 30.2 | > 50 | > 50 | 12.8 | 39 | 22.4 | 25.2 | 35.9 | 20.3 | 22.3 | > 50 |  | 28.8 | 41.1 | > 50 | > 50 | 43.6 |
| C=C(C)C1CCC(C(=O)O)CC1 (stereo not given) | > 100 |  | > 100 | > 100 | > 100 | > 100 | > 100 | > 100 | > 100 | > 100 | > 100 | > 100 | > 100 | > 100 | > 100 | > 100 | > 100 |  | > 100 |
| COc1c(=O)cc2cc[nH]c3cc[nH]c1c23 | > 100 | > 100 | > 100 | > 100 | > 100 | > 100 | > 100 | > 100 | > 100 | > 100 | > 100 | > 100 | > 100 | > 100 | > 100 | > 100 | > 100 | > 100 |  |
| CC1(C)C2CCC1(C)C(N/C(Sc1ccccc1)=C(/C(Cl)=C(Cl)Cl)[N+](=O)[O-])C2 (stereo not given) |  |  | 21.1 |  | 24.9 | 26.9 | 24.1 | 24 | 30.7 | 18.8 |  | 21.3 | 27.7 |  | > 100 | 31.1 | 34.7 | 29.8 | 30.4 |
| COc1ccc(Cn2c(=O)c(OC)c(C)c3cc4ccccc4cc32)cc1 | 70.8 | 46 | 49.2 | 40.2 | > 100 | > 100 | > 100 | > 100 | > 100 | > 100 | 57 | 69.9 | > 100 |  | 53 | > 100 | > 100 | > 100 | > 100 |
| CC(C)(C)C1=C(Br)C(C(C)(C)C)OP1(=O)O (stereo not given) | > 100 | > 100 | > 100 | > 100 | > 100 | > 100 | > 100 |  | > 100 | > 100 | > 100 | > 100 | > 100 |  |  | > 100 | > 100 | > 100 | > 100 |
| O=C1C2=Cc3ccccc3OC2(O)Oc2cc3ccccc3cc21 (stereo not given) | > 100 |  | > 100 | > 100 | > 100 | > 100 | > 100 | > 100 | > 100 | > 100 | > 100 | > 100 | > 100 | > 100 | > 100 | > 100 | > 100 | > 100 | 73.2 |
